Species: Rattus norvegicus
Test: Open TG-GATES - Regimen: Single
Assay type: toxicity, organism-based, Sprague-Dawley
Set-up: regimen Single, gender Male, age 6 weeks
Conditions: in vivo, po, 300 mg/kg, route gavage, dose level Middle; for APTT / Bas / Eos / Fbg / Hb / Ht / Lym / MCH / MCHC / MCV / Mono / Neu / PT / Plat / RBC / Ret / WBC: tissue Blood; for KIDNEY_L / KIDNEY_R / KIDNEY_TOTAL: tissue Kidney; for LIVER: tissue Liver; for A/G / ALP / ALT / AST / BUN / CRE / Ca / Cl / DBIL / GLC / IP / K / LDH / Na / PL / RALB / TBIL / TC / TG / TP / gamma-GTP: tissue Plasma

Compound: COc1ccc(Cl)cc1C(=O)NCCc1ccc(S(=O)(=O)NC(=O)NC2CCCCC2)cc1 [GLYBURIDE]
- TERMINAL_BW (3 h): 217.4 g
- APTT (3 h): 18.5 s
- Bas (3 h): 0%
- Eos (3 h): 1%
- Fbg (3 h): 239 mg/dL
- Hb (3 h): 13.3 g/dL
- Ht (3 h): 40.4%
- Lym (3 h): 72%
- MCH (3 h): 20.3 pg
- MCHC (3 h): 32.9%
- MCV (3 h): 61.7 fL
- Mono (3 h): 2.6%
- Neu (3 h): 23.8%
- PT (3 h): 12.6 s
- Plat (3 h): 139.4 x10_4/uL
- RBC (3 h): 655.2 x10_4/ul
- Ret (3 h): 8.6%
- WBC (3 h): 79 x10_2/uL
- KIDNEY_L (3 h): 1 g
- KIDNEY_R (3 h): 1 g
- KIDNEY_TOTAL (3 h): 1.9 g
- LIVER (3 h): 9.7 g
- A/G (3 h): 1.5
- ALP (3 h): 1040 IU/L
- ALT (3 h): 46.4 IU/L
- AST (3 h): 70.8 IU/L
- BUN (3 h): 12.2 mg/dL
- CRE (3 h): 0.3 mg/dL
- Ca (3 h): 10.8 mg/dL
- Cl (3 h): 103.6 meq/L
- DBIL (3 h): 0.1 mg/dL
- GLC (3 h): 136.4 mg/dL
- IP (3 h): 8.7 mg/dL
- K (3 h): 3.7 meq/L
- LDH (3 h): 143.8 IU/L
- Na (3 h): 141.2 meq/L
- PL (3 h): 165.8 mg/dL
- RALB (3 h): 3.5 g/dL
- TBIL (3 h): 0.2 mg/dL
- TC (3 h): 82.4 mg/dL
- TG (3 h): 88 mg/dL
- TP (3 h): 5.7 g/dL
- gamma-GTP (3 h): 1 IU/L
- TERMINAL_BW (6 h): 216.4 g
- APTT (6 h): 18.7 s
- Bas (6 h): 0%
- Eos (6 h): 0.8%
- Fbg (6 h): 215.8 mg/dL
- Hb (6 h): 13.4 g/dL
- Ht (6 h): 41%
- Lym (6 h): 74.4%
- MCH (6 h): 20.7 pg
- MCHC (6 h): 32.6%
- MCV (6 h): 63.6 fL
- Mono (6 h): 3%
- Neu (6 h): 21%
- PT (6 h): 12.9 s
- Plat (6 h): 123.3 x10_4/uL
- RBC (6 h): 645.6 x10_4/ul
- Ret (6 h): 8.3%
- WBC (6 h): 114.4 x10_2/uL
- KIDNEY_L (6 h): 1 g
- KIDNEY_R (6 h): 0.9 g
- KIDNEY_TOTAL (6 h): 1.9 g
- LIVER (6 h): 9.6 g
- A/G (6 h): 1.6
- ALP (6 h): 903.6 IU/L
- ALT (6 h): 33.6 IU/L
- AST (6 h): 62.2 IU/L
- BUN (6 h): 11.8 mg/dL
- CRE (6 h): 0.3 mg/dL
- Ca (6 h): 10.8 mg/dL
- Cl (6 h): 103.6 meq/L
- DBIL (6 h): 0.1 mg/dL
- GLC (6 h): 161.4 mg/dL
- IP (6 h): 9 mg/dL
- K (6 h): 3.8 meq/L
- LDH (6 h): 134.8 IU/L
- Na (6 h): 140.8 meq/L
- PL (6 h): 139.2 mg/dL
- RALB (6 h): 3.4 g/dL
- TBIL (6 h): 0.2 mg/dL
- TC (6 h): 72.4 mg/dL
- TG (6 h): 69.4 mg/dL
- TP (6 h): 5.7 g/dL
- gamma-GTP (6 h): 0.8 IU/L
- TERMINAL_BW (9 h): 213.5 g
- APTT (9 h): 19.3 s
- Bas (9 h): 0%
- Eos (9 h): 1%
- Fbg (9 h): 234.8 mg/dL
- Hb (9 h): 13.4 g/dL
- Ht (9 h): 41%
- Lym (9 h): 67.8%
- MCH (9 h): 20.7 pg
- MCHC (9 h): 32.8%
- MCV (9 h): 63.2 fL
- Mono (9 h): 3%
- Neu (9 h): 27.4%
- PT (9 h): 12.6 s
- Plat (9 h): 119.4 x10_4/uL
- RBC (9 h): 648.6 x10_4/ul
- Ret (9 h): 7.9%
- WBC (9 h): 119.6 x10_2/uL
- KIDNEY_L (9 h): 0.9 g
- KIDNEY_R (9 h): 1 g
- KIDNEY_TOTAL (9 h): 1.9 g
- LIVER (9 h): 9.4 g
- A/G (9 h): 1.5
- ALP (9 h): 926.6 IU/L
- ALT (9 h): 35.8 IU/L
- AST (9 h): 65.2 IU/L
- BUN (9 h): 12.2 mg/dL
- CRE (9 h): 0.3 mg/dL
- Ca (9 h): 10.6 mg/dL
- Cl (9 h): 102.8 meq/L
- DBIL (9 h): 0.086 mg/dL
- GLC (9 h): 148.4 mg/dL
- IP (9 h): 10.2 mg/dL
- K (9 h): 3.6 meq/L
- LDH (9 h): 133.6 IU/L
- Na (9 h): 141.6 meq/L
- PL (9 h): 149.2 mg/dL
- RALB (9 h): 3.5 g/dL
- TBIL (9 h): 0.1 mg/dL
- TC (9 h): 76.2 mg/dL
- TG (9 h): 58.6 mg/dL
- TP (9 h): 5.8 g/dL
- gamma-GTP (9 h): 1.8 IU/L
- TERMINAL_BW (24 h): 225 g
- APTT (24 h): 18.1 s
- Bas (24 h): 0.2%
- Eos (24 h): 1%
- Fbg (24 h): 220.2 mg/dL
- Hb (24 h): 12.9 g/dL
- Ht (24 h): 37.9%
- Lym (24 h): 82.6%
- MCH (24 h): 21.5 pg
- MCHC (24 h): 33.9%
- MCV (24 h): 63.5 fL
- Mono (24 h): 1.8%
- Neu (24 h): 14%
- PT (24 h): 12.5 s
- Plat (24 h): 119.5 x10_4/uL
- RBC (24 h): 597.4 x10_4/ul
- Ret (24 h): 6.6%
- WBC (24 h): 91.9 x10_2/uL
- KIDNEY_L (24 h): 1 g
- KIDNEY_R (24 h): 1 g
- KIDNEY_TOTAL (24 h): 2 g
- LIVER (24 h): 10.4 g
- A/G (24 h): 1.7
- ALP (24 h): 931.4 IU/L
- ALT (24 h): 36.2 IU/L
- AST (24 h): 65 IU/L
- BUN (24 h): 15.8 mg/dL
- CRE (24 h): 0.4 mg/dL
- Ca (24 h): 10.7 mg/dL
- Cl (24 h): 102.4 meq/L
- DBIL (24 h): 0.088 mg/dL
- GLC (24 h): 202 mg/dL
- IP (24 h): 8.3 mg/dL
- K (24 h): 3.5 meq/L
- LDH (24 h): 182.2 IU/L
- Na (24 h): 141.8 meq/L
- PL (24 h): 144.4 mg/dL
- RALB (24 h): 3.4 g/dL
- TBIL (24 h): 0.1 mg/dL
- TC (24 h): 79 mg/dL
- TG (24 h): 62.6 mg/dL
- TP (24 h): 5.4 g/dL
- gamma-GTP (24 h): 1.4 IU/L

Reference: ChEMBL document CHEMBL3885861, “Open TG-GATES”
